Patent publication US20170333591A9, “ABSORBENT ARTICLE COMPRISING MALODOR REDUCTION COMPOSITIONS” (The Procter & Gamble Company, priority 2014, published 2017)

assay: Log of liquid dish neat product liquid-air partition coefficient; type: physicochemical; conditions: not given

Structure (SMILES)	Comment Code: Log of liquid dish neat product liquid-air partition coefficient
CCC(=O)OC1CC2CC1C1CC=CC21 (stereo not shown) [Material 919]	K (Log of liquid dish neat product liquid-air partition coefficient greater than or equal to 7)
CC12CCCC(C)(CC1)C2=NO [Material 921]	K (Log of liquid dish neat product liquid-air partition coefficient greater than or equal to 7)
CC(=O)c1cc2c(cc1C)C(C)(C)C(C)C2(C)C (stereo not shown) [Material 927]	K (Log of liquid dish neat product liquid-air partition coefficient greater than or equal to 7)
C=C(OC(C)=O)c1ccccc1 [Material 931]	K (Log of liquid dish neat product liquid-air partition coefficient greater than or equal to 7)
CC1CCC2(O)C(C)(C)C3CCC2(C)C1C3 (stereo not shown) [Material 933]	K (Log of liquid dish neat product liquid-air partition coefficient greater than or equal to 7)
O=COCCc1ccccc1 [Material 956]	K (Log of liquid dish neat product liquid-air partition coefficient greater than or equal to 7)
CC(C)C(=O)OCCc1ccccc1 [Material 958]	K (Log of liquid dish neat product liquid-air partition coefficient greater than or equal to 7)
C/C=C(\C)C(=O)OCCc1ccccc1 [Material 960]	K (Log of liquid dish neat product liquid-air partition coefficient greater than or equal to 7)
C=C(C)C(=O)OCCc1ccccc1 [Material 971]	K (Log of liquid dish neat product liquid-air partition coefficient greater than or equal to 7)
CC(C)c1ccc(CC=O)cc1 [Material 977]	K (Log of liquid dish neat product liquid-air partition coefficient greater than or equal to 7)
CC(C)(C)C(=O)OC1CC2CC1C1CC=CC21 (stereo not shown) [Material 978]	K (Log of liquid dish neat product liquid-air partition coefficient greater than or equal to 7)
COc1ccc(CC(C)=O)cc1 [Material 983]	K (Log of liquid dish neat product liquid-air partition coefficient greater than or equal to 7)
CC(C)(C)c1ccc(CC=O)cc1 [Material 994]	K (Log of liquid dish neat product liquid-air partition coefficient greater than or equal to 7)
CCC(C)(C)C1CCC(O)CC1 (stereo not shown) [Material 995]	K (Log of liquid dish neat product liquid-air partition coefficient greater than or equal to 7)
CC(=O)CCc1ccc(O)cc1 [Material 1002]	K (Log of liquid dish neat product liquid-air partition coefficient greater than or equal to 7)
CC1=CC[C@@H]2C3CC([C@@H]2C1)[C@@]1(C3)OC1C (stereo partly shown) [Material 1007]	K (Log of liquid dish neat product liquid-air partition coefficient greater than or equal to 7)
C=C[C@@](C)(O)CCC=C(C)C [Material 1017]	K (Log of liquid dish neat product liquid-air partition coefficient greater than or equal to 7)
CC1=CC(C)C2(CCCC(C)(C)C2=O)CC1 (stereo not shown) [Material 1022]	K (Log of liquid dish neat product liquid-air partition coefficient greater than or equal to 7)
CC/C(=C/CC1CC=C(C)C1(C)C)CO (stereo not shown) [Material 1024]	K (Log of liquid dish neat product liquid-air partition coefficient greater than or equal to 7)

same assay, conditions: code letters K/L of the Comment Code

Structure (SMILES)	Log of liquid dish neat product liquid-air partition coefficient (Comment Code)
CCC(=O)OC1CC2CC1C1CC=CC21 (stereo not shown) [Material 919]	K (Log of liquid dish neat product liquid-air partition coefficient greater than or equal to 7)
CC1=C2CCC(C)C2CC(C(C)(C)O)CC1 (stereo not shown) [Material 920]	K (Log of liquid dish neat product liquid-air partition coefficient greater than or equal to 7)
C/C=C/c1cc(OC)c(OC)cc1OC [Material 924]	K (Log of liquid dish neat product liquid-air partition coefficient greater than or equal to 7)
CC(C)(C=O)CC1=CCC2CC1C2(C)C (stereo not shown) [Material 925]	K (Log of liquid dish neat product liquid-air partition coefficient greater than or equal to 7)
CC(=O)c1cc2c(cc1C)C(C)(C)C(C)C2(C)C (stereo not shown) [Material 927]	K (Log of liquid dish neat product liquid-air partition coefficient greater than or equal to 7)
Cc1cccc(CCO)c1 [Material 928]	K (Log of liquid dish neat product liquid-air partition coefficient greater than or equal to 7)
CCC=CCC=CCCO [Material 929]	K (Log of liquid dish neat product liquid-air partition coefficient greater than or equal to 7)
CCCCCCCCCCC=CC=O [Material 930]	K (Log of liquid dish neat product liquid-air partition coefficient greater than or equal to 7)
CC1CCC2(O)C(C)(C)C3CCC2(C)C1C3 (stereo not shown) [Material 933]	K (Log of liquid dish neat product liquid-air partition coefficient greater than or equal to 7)
CCCCCC(=O)Oc1ccc(C)cc1 [Material 939]	K (Log of liquid dish neat product liquid-air partition coefficient greater than or equal to 7)
CCCCC/C=C/C=C\C(=O)OCC [Material 942]	K (Log of liquid dish neat product liquid-air partition coefficient greater than or equal to 7)
N#CC(=C1CCCCC1)c1ccccc1 [Material 945]	K (Log of liquid dish neat product liquid-air partition coefficient greater than or equal to 7)
C=C(C)C1CC=C(C=O)CC1 (stereo not shown) [Material 946]	K (Log of liquid dish neat product liquid-air partition coefficient greater than or equal to 7)
C=C(C)C1CC=C(COC(C)=O)CC1 (stereo not shown) [Material 947]	K (Log of liquid dish neat product liquid-air partition coefficient greater than or equal to 7)
C=C(C)C1CC=C(CO)CC1 (stereo not shown) [Material 948]	K (Log of liquid dish neat product liquid-air partition coefficient greater than or equal to 7)
CCCCC/C=C/C=C\C(=O)OCC [Material 951]	K (Log of liquid dish neat product liquid-air partition coefficient greater than or equal to 7)
c1ccc(CCOC2CCCCC2)cc1 [Material 953]	K (Log of liquid dish neat product liquid-air partition coefficient greater than or equal to 7)
CCC(C)C(=O)OCCc1ccccc1 (stereo not shown) [Material 954]	K (Log of liquid dish neat product liquid-air partition coefficient greater than or equal to 7)

Structure (SMILES)	Log of liquid dish neat product liquid-air partition coefficient (Comment Code)
OCCc1ccccc1 [Material 955]	K (Log of liquid dish neat product liquid-air partition coefficient greater than or equal to 7)
O=C(Oc1ccccc1)c1ccccc1 [Material 965]	K (Log of liquid dish neat product liquid-air partition coefficient greater than or equal to 7)
CC(C)(C)C(=O)OC1CC2CC1C1CC=CC21 (stereo not shown) [Material 978]	K (Log of liquid dish neat product liquid-air partition coefficient greater than or equal to 7)
CC(C)C1=CCC(C)(O)CC1 (stereo not shown) [Material 982]	K (Log of liquid dish neat product liquid-air partition coefficient greater than or equal to 7)
CC1=CCC(/C=C/C(C)(C)C(C)O)C1(C)C (stereo not shown) [Material 985]	K (Log of liquid dish neat product liquid-air partition coefficient greater than or equal to 7)
CC(C)=CCCC1=CCC(C)(C=O)CC1 (stereo not shown) [Material 988]	K (Log of liquid dish neat product liquid-air partition coefficient greater than or equal to 7)
CCC=CCC=CC=CC(=O)OCC [Material 1000]	K (Log of liquid dish neat product liquid-air partition coefficient greater than or equal to 7)
CC1CC(C)(C)OC(Cc2ccccc2)O1 (stereo not shown) [Material 1003]	K (Log of liquid dish neat product liquid-air partition coefficient greater than or equal to 7)
CC1CC(C)(c2ccccc2)CO1 (stereo not shown) [Material 1006]	K (Log of liquid dish neat product liquid-air partition coefficient greater than or equal to 7)
CC1=CC[C@@H]2C3CC([C@@H]2C1)[C@@]1(C3)OC1C (stereo partly shown) [Material 1007]	K (Log of liquid dish neat product liquid-air partition coefficient greater than or equal to 7)
CC(CO)CCCc1ccccc1 (stereo not shown) [Material 1012]	K (Log of liquid dish neat product liquid-air partition coefficient greater than or equal to 7)
CC1=CCOC(c2ccccc2)C1 (stereo not shown) [Material 1016]	K (Log of liquid dish neat product liquid-air partition coefficient greater than or equal to 7)
C=CCc1ccc2c(c1)OCO2 [Material 1021]	K (Log of liquid dish neat product liquid-air partition coefficient greater than or equal to 7)
CC1=CC(C)C2(CCCC(C)(C)C2=O)CC1 (stereo not shown) [Material 1022]	K (Log of liquid dish neat product liquid-air partition coefficient greater than or equal to 7)
CC1=CCC(CCC(C)C(C)O)C1(C)C (stereo not shown) [Material 1023]	K (Log of liquid dish neat product liquid-air partition coefficient greater than or equal to 7)
CC/C(=C/CC1CC=C(C)C1(C)C)CO (stereo not shown) [Material 1024]	K (Log of liquid dish neat product liquid-air partition coefficient greater than or equal to 7)
CC(=CCC1CC=C(C)C1(C)C)CO (stereo not shown) [Material 1025]	K (Log of liquid dish neat product liquid-air partition coefficient greater than or equal to 7)
COC1CC2CC1C1CC(C=O)CC21 (stereo not shown) [Material 1026]	K (Log of liquid dish neat product liquid-air partition coefficient greater than or equal to 7)
